We go through 21 molecules from patent US10000501B2, “Inhibitors of HIF prolyl hydroxylase” (MERCK SHARP & DOHME CORP., priority 2014, dated 2018).

This test concerns the target T1, human HIF-PHD2 (Homo sapiens, UniProt Q9GZT9).
T1 construct: FLAG-tagged full length PHD2 expressed in and purified from baculovirus-infected Sf9 cells; FLAG; made in house; host or cells: baculovirus-infected Sf9 cells
Nature of the test: HIF-PHD2 inhibition assay (hydroxylation of HIF-1α peptide, time resolved fluorescence). The test is classed as biochemical. The following applies: FLAG-tagged full length PHD2; 0.2 μM 2-oxoglutarate, 0.5 μM HIF-1α peptide. How it is done:
To each well of a 384-well plate, 1 μL of test compounds in DMSO (final concentration ranging from 0.3 nM to 10 uM) were added into 20 μl of assay buffer (50 mM Tris pH 7.4/0.01% Tween-20/0.1 mg/ml bovine serum albumin/10 μM ferrous sulfate/1 mM sodium ascorbate/20 μg/ml catalase) containing 0.15 μg/ml FLAG-tagged full length PHD2 expressed in and purified from baculovirus-infected Sf9 cells. […] Purif.

Broadly, the IC50 is the point on the concentration scale where inhibition reaches its midpoint. Lower therefore signals inhibition by little substance.

T1 sequence (Q9GZT9 whole entry): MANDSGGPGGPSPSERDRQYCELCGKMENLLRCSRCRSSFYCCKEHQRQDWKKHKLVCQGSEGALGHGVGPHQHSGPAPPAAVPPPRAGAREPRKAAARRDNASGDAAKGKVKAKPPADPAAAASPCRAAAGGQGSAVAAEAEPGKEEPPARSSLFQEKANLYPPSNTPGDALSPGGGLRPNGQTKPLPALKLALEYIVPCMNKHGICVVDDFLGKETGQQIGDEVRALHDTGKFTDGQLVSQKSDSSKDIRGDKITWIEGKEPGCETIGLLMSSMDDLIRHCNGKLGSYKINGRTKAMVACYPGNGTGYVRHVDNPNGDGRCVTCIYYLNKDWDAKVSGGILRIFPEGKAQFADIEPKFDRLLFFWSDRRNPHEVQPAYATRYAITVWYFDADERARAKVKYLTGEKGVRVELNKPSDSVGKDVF

Molecule `N#Cc1ccc(Cn2c3c(c(O)c(C(=O)NCC(=O)O)c2=O)CCOC3)cc1F` [Example 61, 2-(1-(4-cyano-3-fluorobenzyl)-4-hydroxy-2-oxo-2,5,6,8-tetrahydro-1H-pyrano[3,4-b]pyridine-3-carboxamido)acetic acid] returned an IC50 of 22.6 nM.
The figure for `O=C(O)CNC(=O)c1c(O)c2c(n(Cc3cncs3)c1=O)COCC2` [Example 62, 2-(4-hydroxy-2-oxo-1-(thiazol-5-ylmethyl)-2,5,6,8-tetrahydro-1H-pyrano[3,4-b]pyridine-3-carboxamido)acetic acid] is 44.1 nM.
The figure for `CC(C)(O)c1ccc(Cn2c3c(c(O)c(C(=O)NCC(=O)O)c2=O)CCOC3)cc1` [Example 63, 2-(4-Hydroxy-1-(4-(2-hydroxypropan-2-yl)benzyl)-2-oxo-2,5,6,8-tetrahydro-1H-pyrano[3,4-b]pyridine-3-carboxamido)acetic acid] is 67.4 nM.
The same measure for `NC(=O)c1ccc(Cn2c3c(c(O)c(C(=O)NCC(=O)O)c2=O)CCOC3)cc1` [Example 64, 2-(1-(4-Carbamoylbenzyl)-4-hydroxy-2-oxo-2,5,6,8-tetrahydro-1H-pyrano[3,4-b]pyridine-3-carboxamido)acetic acid]: 30.6 nM; for `O=C(O)CNC(=O)c1c(O)c2c(n(Cc3ccc(-c4ccc(C(F)(F)F)cc4)cc3)c1=O)COCC2` [Example 65, 2-(4-Hydroxy-2-oxo-1-((4′-(trifluoromethyl)-[1,1′-biphenyl]-4-yl)methyl)-2,5,6,8-tetrahydro-1H-pyrano[3,4-b]pyridine-3-carboxamido)acetic acid]: 23.6 nM; for `O=C(O)CNC(=O)c1c(O)c2c(n(Cc3ccc(-c4ccc(OC(F)(F)F)cc4)cc3)c1=O)COCC2` [Example 66, 2-(4-hydroxy-2-oxo-1-((4′-(trifluoromethoxy)-[1,1′-biphenyl]-4-yl)methyl)-2,5,6,8-tetrahydro-1H-pyrano[3,4-b]pyridine-3-carboxamido)acetic acid]: 28.8 nM.
For the molecule `O=C(O)CNC(=O)c1c(O)c2c(n(Cc3ccc(-c4ccc(Cl)cc4)cc3)c1=O)COCC2` [Example 67, 2-(1-((4′-chloro-[1,1′-biphenyl]-4-yl)methyl)-4-hydroxy-2-oxo-2,5,6,8-tetrahydro-1H-pyrano[3,4-b]pyridine-3-carboxamido)acetic acid], 13.5 nM corresponded to half-maximal inhibition (IC50).
`NC(=O)c1ccc(-c2ccc(Cn3c4c(c(O)c(C(=O)NCC(=O)O)c3=O)CCOC4)cc2)cc1` [Example 68, 2-(1-((4′-carbamoyl-[1,1′-biphenyl]-4-yl)methyl)-4-hydroxy-2-oxo-2,5,6,8-tetrahydro-1H-pyrano[3,4-b]pyridine-3-carboxamido)acetic acid] came in with an IC50 of 7.8 nM. This IC50 lies about 1.7-fold lower than the previous one.
The same measure for `N#Cc1ccc(-c2ccc(Cn3c4c(c(O)c(C(=O)NCC(=O)O)c3=O)CCOC4)cc2)cc1` [Example 69, 2-(1-((4′-cyano-[1,1′-biphenyl]-4-yl)methyl)-4-hydroxy-2-oxo-2,5,6,8-tetrahydro-1H-pyrano[3,4-b]pyridine-3-carboxamido)acetic acid]: 16.3 nM.
The same measure for `CN1Cc2c(c(O)c(C(=O)NCC(=O)O)c(=O)n2Cc2ccc(C#N)cc2F)CC1=O` [Example 70, 2-(1-(4-Cyano-2-fluorobenzyl)-4-hydroxy-7-methyl-2,6-dioxo-1,2,5,6,7,8-hexahydro-1,7-naphthyridine-3-carboxamido)acetic acid]: 10.4 nM; for `CN1Cc2c(c(O)c(C(=O)NCC(=O)O)c(=O)n2Cc2ccc(S(C)(=O)=O)cc2)CC1=O` [Example 71, 2-(4-hydroxy-7-methyl-1-(4-(methylsulfonyl)benzyl)-2,6-dioxo-1,2,5,6,7,8-hexahydro-1,7-naphthyridine-3-carboxamido)acetic acid]: 19 nM; for `CN1Cc2c(c(O)c(C(=O)NCC(=O)O)c(=O)n2Cc2ccc(F)cc2F)CC1=O` [Example 72, 2-(1-(2,4-difluorobenzyl)-4-hydroxy-7-methyl-2,6-dioxo-1,2,5,6,7,8-hexahydro-1,7-naphthyridine-3-carboxamido)acetic acid]: 28.7 nM.
`CN1Cc2c(c(O)c(C(=O)NCC(=O)O)c(=O)n2Cc2cccc(C#N)c2)CC1=O` [Example 73, 2-(1-(3-cyanobenzyl)-4-hydroxy-7-methyl-2,6-dioxo-1,2,5,6,7,8-hexahydro-1,7-naphthyridine-3-carboxamido)acetic acid] came in with an IC50 of 17.2 nM.
The figure for `CN1Cc2c(c(O)c(C(=O)NCC(=O)O)c(=O)n2Cc2ccc(C#N)cc2)CC1=O` [Example 74, 2-(1-(4-cyanobenzyl)-4-hydroxy-7-methyl-2,6-dioxo-1,2,5,6,7,8-hexahydro-1,7-naphthyridine-3-carboxamido)acetic acid] is 7.5 nM; for `CN1Cc2c(c(O)c(C(=O)NCC(=O)O)c(=O)n2Cc2ccccc2Cl)CC1=O` [Example 76, 2-(1-(2-chlorobenzyl)-4-hydroxy-7-methyl-2,6-dioxo-1,2,5,6,7,8-hexahydro-1,7-naphthyridine-3-carboxamido)acetic acid] it is 10.6 nM.
The figure for `O=C(O)CNC(=O)c1c(O)c2c(n(Cc3ccc(C(F)(F)F)cc3)c1=O)NCCC2` [Example 78, 2-(4-Hydroxy-2-oxo-1-(4-(trifluoromethyl)benzyl)-1,2,5,6,7,8-hexahydro-1,8-naphthyridine-3-carboxamido)acetic acid] is 70 nM; for `O=C(O)CNC(=O)c1c(O)c2c(n(Cc3ccc(C(F)(F)F)cc3)c1=O)CN(Cc1ccccc1)CC2` [Example 80, 2-(7-Benzyl-4-hydroxy-2-oxo-1-(4-(trifluoromethyl)benzyl)-1,2,5,6,7,8-hexahydro-1,7-naphthyridine-3-carboxamido)acetic acid] it is 32 nM; for `CN1CCc2c(c(O)c(C(=O)NCC(=O)O)c(=O)n2Cc2ccc(C(F)(F)F)cc2)C1` [Example 81, 2-(4-Hydroxy-6-methyl-2-oxo-1-(4-(trifluoromethyl)benzyl)-1,2,5,6,7,8-hexahydro-1,6-naphthyridine-3-carboxamido)acetic acid] it is 46.1 nM.
The same measure for `O=C(O)CNC(=O)c1c(O)c2c(n(Cc3ccc(C(F)(F)F)cc3)c1=O)C1CCC2C1` (stereo not drawn) [Example 83, 2-(-4-hydroxy-2-oxo-1-(4-(trifluoromethyl)benzyl)-1,2,5,6,7,8-hexahydro-5,8-methanoquinoline-3-carboxamide)acetic acid]: 46 nM; for `O=C(O)CNC(=O)c1c(O)c2c(n(Cc3cnc(-c4ccccc4)s3)c1=O)C1CCC2C1` (stereo not drawn) [Example 84, 2-(-4-hydroxy-2-oxo-1-((2-phenylthiazol-5-yl)methyl)-1,2,5,6,7,8-hexahydro-5,8-methanoquinoline-3-carboxamido)acetic acid]: 19 nM; for `O=C(O)CNC(=O)c1c(O)c2c(n(Cc3nc(-c4ccccc4)cs3)c1=O)C1CCC2C1` (stereo not drawn) [Example 85, 2-(-4-hydroxy-2-oxo-1-((4-phenylthiaozl-2-yl)methyl)-1,2,5,6,7,8-hexahydro-5,8-methanoquinoline-3-carboxamido)acetic acid]: 61 nM.
